# Data from patent publication US5767078A, “Agonist peptide dimers” (priority 1995, dated 1998).
# Bridge positions count the residues as written; N and C are the ends. Ends that are not written are not given here.
# Experiments:
# BDF1 mice = test: Polycythemic exhypoxic mouse bioassay ([59Fe] incorporation into nascent red blood cells); type: in vivo; conditions: on a mole equivalent basis
# Method: Peptides were assayed for in vivo activity in the polycythemic mouse bioassay adapted from the method described by Cotes and Bangham (1961), Nature 191: 1065-1067. BDF1 mice were allowed to acclimate to ambient conditions for 7-10 days. Body weights were determined for all animals. Low weight animals (<15 grams) were not used. Mice were introduced to hypobaric chambers with a 24 hour conditioning cycle consisting of 0.40% +/-0.02 atm. for 18 hours followed by 6 hours at ambient pressure for a total of 14 days. Following the 14 day period, mice were placed in ambient pressure for 72 hours prior to dosing. […] Peptide sample stock solutions (excluding peptide dimers) were first solubilized in dimethyl sulfoxide (DMSO). Control groups included one group of vehicle alone, and one group of (DMSO) at final concentration of 1%.
# Each dose group contained 10 mice. Mice were injected subcutaneously (scruff of neck) with 0.5 ml of the appropriate sample. […]
# Mouse body weights were determined twenty four hours following [^59 Fe] administration and the mice were sacrificed forty eight hours following the [^59 Fe] injection. Blood was collected from each animal by cardiac puncture and hematocrits were determined (heparin was used as the anticoagulant). Each blood sample (0.2 ml) was analyzed for [^59 Fe] incorporation using a Packard gamma counter. […]
# murine EPO receptor = target: T1, murine EPO receptor (Mus musculus, UniProt P14753); test: EPO dependent cell proliferation assay, FDC-P1/ER cells; type: cell-based
# T1 construct: expressed in transfected cells; host or cells: FDC-P1/ER cells
# T1 sequence (P14753 25-507): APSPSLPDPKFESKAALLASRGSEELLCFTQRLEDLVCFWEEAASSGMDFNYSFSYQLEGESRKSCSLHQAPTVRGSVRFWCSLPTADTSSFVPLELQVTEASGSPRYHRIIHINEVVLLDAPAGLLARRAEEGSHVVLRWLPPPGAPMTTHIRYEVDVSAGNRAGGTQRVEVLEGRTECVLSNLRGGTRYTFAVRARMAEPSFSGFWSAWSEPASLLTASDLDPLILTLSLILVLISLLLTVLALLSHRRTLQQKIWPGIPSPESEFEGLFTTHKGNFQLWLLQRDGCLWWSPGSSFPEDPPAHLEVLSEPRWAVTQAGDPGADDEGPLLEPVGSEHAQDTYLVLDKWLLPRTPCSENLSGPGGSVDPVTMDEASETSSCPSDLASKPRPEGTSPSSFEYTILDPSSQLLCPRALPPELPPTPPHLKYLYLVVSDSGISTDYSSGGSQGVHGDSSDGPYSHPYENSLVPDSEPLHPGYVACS
# Method: After 24 hours, the cells were counted, resuspended at 800,000 cells/ml and dispensed at 40,000 cells/well. Stock solutions of the peptide dimer (5 mM in PBS) and peptide (10 mM in DMSO) were prepared and dispensed in triplicate to final concentrations of 1×10^-10 M through 1×10^-5 M and adjusted to a final volume of 0.2 ml. […] After a 42 hr incubation at 37° C. (ca. 2 cell doublings) 1 μCi/well of [^3 H] thymidine was added and the incubation continued for 6 hr at which time the cells were harvested and counted to assess [^3 H]thymidine incorporation as a measure of cell proliferation.
substance,measurement,setting,value
"peptide (SEQ ID NO: 8)/PEG-dimer: PEG dimer of peptide SEQ ID NO: 8, lot not stated for the in vivo bioassay (GGTYSCHFGPLTWVCKPQGG-NH2; disulfide 6-15 (inferred); also: PEG covalent dimer)",in vivo activity of dimer relative to monomer,BDF1 mice,about 10 fold
same,"increase in potency versus parent peptide, murine receptor line",murine EPO receptor,10 fold
